These results are taken from patent US11117932B2, “Peptides for specific inhibition of Jag 1-Notch 1 pathway” (The Hong Kong Polytechnic University, priority 2018, dated 2021).

One data set deals with HEK-293T-Jagged-1 cells. In kind it is cell-based, human. How it is done:
(§1) HCT-116, HCT-15, S1-M1-80, S1, L929, HEK293T-Jagged-1 were seeded in each well of a 96-well plate with a series of concentrations (a serial dilution from 1000μM to 0.5 μM) of peptides or drugs including DAPT, Topotecan at 37° C. with 5% CO2 in a humidified incubator for 3 days. Percentage of survival was determined by MTS assay as described.

A further data set can be described thus: in vitro. In kind it is cell-based. To be noted: mouse. On the procedure:
as §1

Data set [1] concerns S1-M1-80 cells. Nature of the data set: cells. Type of data set: cell-based, human. How it is done: as §1
Another data set has as its system S1. Nature of the data set: cells. In kind it is cell-based, human. How it is done: as §1
A further data set concerns Jag1-Notch1 signalling. In words: Co-culture Notch luciferase reporter assay, Jag1-induced. In kind it is cell-based, human. To be noted: peptides 25 μM. How it is done:
Jag1-Notch interaction is measured using a co-culture assay with one cell line expressing the Notch ligand Jagged1 (Jag1) and a second expressing Notch (either Notch1 or Notch2). A firefly luciferase reporter plasmid with 12 upstream CBF-1 binding site was transfected into signalling-receiving cells to report on Notch signalling (FIG. 1D). Peptides were tested for their activity in inhibiting Jag1-induced Notch signalling. Complete inhibition is equivalent to the background signal seen without induction (−Jag1). […] N1 (SEQ ID NO: 10) is a 15-mer derived from the EGF-like repeat 12 of Notch1 (C467-G481). This is consistent with the structural information that EGF-like repeat 12 of Notch1 is near the MNNL domain of Jag1 (FIGS. 1B and C).
Specificity of N1 (SEQ ID NO: 10) peptide in inhibiting different Notch ligand-induced Notch signaling was investigated using in vitro co-culture assay. HEK293T or CHO cells expressing Notch ligand (either Jag1, DLL1 or DLL4) are co-cultured with Notch1- or Notch2-expressing cells. Notch1 and Notch2 signalling can be measured by either luciferase reporter assay or by the formation of NICD1 and NICD2. […] Half inhibition is reached at between 50 to 100 μM. […] This contrasts with DAPT which affects all the above interactions.
HEK-293T-Jagged-1 cells were seeded in 24-well plates in triplicate per sample group, and human HCT-116 cells were seeded in one 60 mm dish. Cells were allowed to settle, and were transfected the following day after the medium was changed to be antibiotic free. HCT-116 cells were transfected with 12×CSL-Luc and Renilla-Luc, using Lipofectamine® 3000 (Invitrogen™), according to the manufacturer's instructions. After 24 hours, HCT-116 cells were scraped and 2.5×10^4 cells in 1 mL complete medium per well were added to both 24-well plates. Peptides were treated to cells with the desired concentrations. N—[N-(3,5-difluorophenacetyl)-L-alanyl]-S-phenylglycine t-butyl ester (DAPT) was used as positive control. Cells were co-cultured for 12 hours before measure the luciferase activity. After incubation, cells were lysed with luciferase lysis buffer. Notch activity in cells expressing the 12×CSL-Luc reporter construct was measured by a luciferase assay using Dual-Luciferase® Reporter Assay System (Promega).
Background: Reporter assays use an easily measured gene product as a stand-in for the process of interest.

Data set [2] has as its system S1-M1-80 cells. Nature of the data set: Clonogenicity assay, S1-M1-80. Type of data set: cell-based, human. As to conditions: S1-M1-80, single agent 1 μM. On the procedure: The procedure for colony formation assay consists of following steps. An appropriate number of cells per well were seeded on a 6-well plate in duplicate. The number of cells for seeding should be related to the aggressiveness of the treatment. The cells were incubated for 12 hours in a CO2 incubator at 37° C. and allow cells to attach to the plate. The cells were treated with peptides or (DAPT) to required concentrations. The cells were incubated in a in a CO2 incubator at 37° C. for about 10 days until cells in control well have formed colonies which are of a substantially good size (the minimum score is 100 cells per colony). After the incubation, the medium was removed and cells were rinsed with 5 ml 1×PBS (phosphate buffered saline. pH 7.2). The cells were then fixed with 1 ml methanol at room temperature for 10 min. After fixation, the cells were stained with 0.5% crystal violet solution and incubated at room temperature for 1 h. After staining, the plates were immersed in deionized water to rinse off crystal violet and air-dried at room temperature for overnight. The dry plates were pictured with scanner. The number of colonies in each well was counted by cell counter software.

Read-outs that look alike come from different tables or passages of the source. Residues, ends and D or L forms follow the SMILES beside them. No end group written: not given here.

A word on the IC50: it is the concentration at which inhibition is half-maximal. `CC[C@H](C)[C@H](NC(=O)[C@H](CCC(N)=O)NC(=O)[C@H](CC(=O)O)NC(=O)[C@H](CC(C)C)NC(=O)[C@H](CS)NC(=O)[C@@H](N)Cc1ccccc1)C(=O)NCC(=O)N[C@@H](CCC(=O)O)C(=O)N[C@@H](Cc1ccccc1)C(=O)N[C@@H](CCC(N)=O)C(=O)N[C@@H](CS)C(=O)N[C@H](C(=O)N[C@@H](CS)C(=O)N[C@@H](CCC(=O)O)C(=O)O)[C@@H](C)CC` [N102T466F-M479E, FCLDQIGEFQCICE] (H-FCLDQIGEFQCICE-OH; N-terminus and C-terminus assumed): the half-maximal inhibitory concentration (IC50) is > 100 µM in the data set on HEK-293T-Jagged-1 cells and 43.9 ± 3.4 µM in the data set with S1-M1-80 cells [1]. The IC50 at 3 days in the data set “in vitro” is > 100 µM.

Regarding `CC[C@H](C)[C@H](N)C(=O)N[C@@H](CS)C(=O)N[C@@H](CC(C)C)C(=O)N[C@@H](CC(=O)O)C(=O)N[C@@H](CCC(N)=O)C(=O)N[C@H](C(=O)NCC(=O)N[C@@H](CCC(=O)O)C(=O)N[C@@H](Cc1ccccc1)C(=O)N[C@@H](CCC(N)=O)C(=O)N[C@@H](CS)C(=O)N[C@H](C(=O)N[C@@H](CS)C(=O)N[C@@H](CCC(=O)O)C(=O)O)[C@@H](C)CC)[C@@H](C)CC` [N102T466I-M479E, ICLDQIGEFQCICE] (H-ICLDQIGEFQCICE-OH; N-terminus and C-terminus assumed), the half-maximal inhibitory concentration (IC50) with HEK-293T-Jagged-1 cells is > 100 µM; in the data set with S1-M1-80 cells [1] it was 15.2 ± 4.2 µM. For the same compound, in “in vitro”, the IC50 at 3 days is > 100 µM.

With `CC[C@H](C)[C@H](NC(=O)[C@H](CCC(N)=O)NC(=O)[C@H](CC(=O)O)NC(=O)[C@H](CC(C)C)NC(=O)[C@H](CS)NC(=O)[C@@H](N)CC(C)C)C(=O)NCC(=O)N[C@@H](CCC(=O)O)C(=O)N[C@@H](Cc1ccccc1)C(=O)N[C@@H](CCC(N)=O)C(=O)N[C@@H](CS)C(=O)N[C@H](C(=O)N[C@@H](CS)C(=O)N[C@@H](CCC(=O)O)C(=O)O)[C@@H](C)CC` [N102T466L-M479E, LCLDQIGEFQCICE] (H-LCLDQIGEFQCICE-OH; N-terminus and C-terminus assumed), the values for the IC50 with HEK-293T-Jagged-1 cells and in the data set on S1-M1-80 cells [1] were > 100 µM and 5.4 ± 1.2 µM, respectively. For the same compound, in “in vitro”, the IC50 at 3 days is > 100 µM.

Turning to `CC[C@H](C)[C@H](NC(=O)[C@H](CCC(N)=O)NC(=O)[C@H](CC(=O)O)NC(=O)[C@H](CC(C)C)NC(=O)[C@@H](N)CS)C(=O)NCC(=O)N[C@@H](CCC(=O)O)C(=O)N[C@@H](Cc1ccccc1)C(=O)N[C@@H](CCC(N)=O)C(=O)N[C@@H](CS)C(=O)N[C@H](C(=O)N[C@@H](CS)C(=O)N[C@@H](CCSC)C(=O)N1CCC[C@H]1C(=O)O)[C@@H](C)CC` [Peptide N101, CLDQIGEFQCICMP] (H-CLDQIGEFQCICMP-OH; N-terminus and C-terminus assumed), the IC50 is > 50 µM in the data set on S1 and 14.1 ± 0.7 µM in the data set with S1-M1-80 cells [1].

As to `CC[C@H](C)[C@H](NC(=O)[C@H](CCC(N)=O)NC(=O)[C@H](CC(=O)O)NC(=O)[C@H](CC(C)C)NC(=O)[C@@H](N)CS)C(=O)NCC(=O)N[C@@H](CCC(=O)O)C(=O)N[C@@H](Cc1ccccc1)C(=O)N[C@@H](CCC(N)=O)C(=O)N[C@@H](CS)C(=O)N[C@H](C(=O)N[C@@H](CS)C(=O)N[C@@H](CCSC)C(=O)O)[C@@H](C)CC` [Peptide N102, CLDQIGEFQCICM] (H-CLDQIGEFQCICM-OH; N-terminus and C-terminus assumed), in the data set on Jag1-Notch1 signalling, the “inhibition of Jag1-induced Notch signaling compared with N1” value (from here on “inhibition … compared with N1”) is “stronger inhibitory effect than N1”. For the same compound, the values for the IC50 with S1 and with S1-M1-80 cells [1] were > 50 µM and 10.2 ± 0.4 µM, respectively.

For `CC[C@H](C)[C@H](NC(=O)[C@H](CS)NC(=O)[C@H](CCC(N)=O)NC(=O)[C@H](Cc1ccccc1)NC(=O)[C@H](CCC(=O)O)NC(=O)CNC(=O)[C@H](Cc1c[nH]c2ccccc12)NC(=O)[C@H](CCC(N)=O)NC(=O)[C@H](CC(=O)O)NC(=O)[C@H](CC(C)C)NC(=O)[C@@H](N)CS)C(=O)N[C@@H](CS)C(=O)N[C@@H](CCSC)C(=O)O` [Peptide N102I471W, CLDQWGEFQCICM] (H-CLDQWGEFQCICM-OH; N-terminus and C-terminus assumed), in the data set on Jag1-Notch1 signalling, the “inhibition … compared with N1” value is “slight improvement”. Also, the IC50 in the data set with S1 is > 100 µM; in the data set with S1-M1-80 cells [1] it was > 50 µM.

On to `CC[C@H](C)[C@H](NC(=O)[C@H](CCC(N)=O)NC(=O)[C@H](CC(=O)O)NC(=O)[C@H](CC(C)C)NC(=O)[C@@H](N)CS)C(=O)NCC(=O)N[C@@H](CCC(=O)O)C(=O)N[C@@H](Cc1ccccc1)C(=O)N[C@@H](CCC(N)=O)C(=O)N[C@@H](CS)C(=O)N[C@H](C(=O)N[C@@H](CS)C(=O)O)[C@@H](C)CC` [Peptide N103, CLDQIGEFQCIC] (H-CLDQIGEFQCIC-OH; N-terminus and C-terminus assumed), for which the IC50 in the data set with S1 was > 100 µM; with S1-M1-80 cells [1], > 50 µM.

`CC[C@H](C)[C@H](NC(=O)[C@H](CS)NC(=O)[C@H](CCC(N)=O)NC(=O)[C@H](Cc1ccccc1)NC(=O)[C@H](CCC(=O)O)NC(=O)CNC(=O)[C@@H](NC(=O)[C@H](CCC(N)=O)NC(=O)[C@H](CC(=O)O)NC(=O)[C@H](CC(C)C)NC(=O)[C@@H](N)CS)[C@@H](C)CC)C(=O)O` [Peptide N104, CLDQIGEFQCI] (H-CLDQIGEFQCI-OH; N-terminus and C-terminus assumed): the “inhibition … compared with N1” value with Jag1-Notch1 signalling is on record as “stronger inhibitory effect than N1”. Further, the half-maximal inhibitory concentration (IC50) was > 50 µM in the data set with S1 and 28.4 ± 0.6 µM in the data set on S1-M1-80 cells [1].

`CC[C@H](C)[C@H](NC(=O)[C@H](CCC(N)=O)NC(=O)[C@H](CC(=O)O)NC(=O)[C@H](CC(C)C)NC(=O)[C@@H](N)CS)C(=O)NCC(=O)N[C@@H](CCC(=O)O)C(=O)N[C@@H](Cc1ccccc1)C(=O)N[C@@H](CCC(N)=O)C(=O)N[C@@H](CS)C(=O)O` [Peptide N105, CLDQIGEFQC] (H-CLDQIGEFQC-OH; N-terminus and C-terminus assumed): the 50% inhibitory concentration (IC50) in the data set with S1 and in the data set on S1-M1-80 cells [1] was > 100 µM throughout.

Regarding `CC(C)C[C@H](NC(=O)[C@@H](N)CS)C(=O)N[C@@H](CC(=O)O)C(=O)N[C@@H](CCC(N)=O)C(=O)O` [Peptide N111, CLDQ] (H-CLDQ-OH; N-terminus and C-terminus assumed), the 50% inhibitory concentration (IC50) with S1 and with S1-M1-80 cells [1] was > 100 µM throughout.

As to `CC[C@H](C)[C@H](N)C(=O)NCC(=O)N[C@@H](CCC(=O)O)C(=O)N[C@@H](Cc1ccccc1)C(=O)N[C@@H](CCC(N)=O)C(=O)N[C@@H](CS)C(=O)N[C@H](C(=O)N[C@@H](CS)C(=O)N[C@@H](CCSC)C(=O)N1CCC[C@H]1C(=O)NCC(=O)O)[C@@H](C)CC` [Peptide N112, IGEFQCICMPG] (H-IGEFQCICMPG-OH; N-terminus and C-terminus assumed), the IC50 with S1 and in the data set with S1-M1-80 cells [1] was > 100 µM each time.

As to `CC[C@@]1(O)C(=O)OCc2c1cc1n(c2=O)Cc2cc3c(CN(C)C)c(O)ccc3nc2-1` [Topotecan, reference compound], the IC50 was 0.19 ± 0.05 µM with S1 (Homo sapiens, 72 h, S1 cells, 3 days, MTS, read-out: IC50 (μM) S1) and 14.9 ± 0.1 µM in the data set on S1-M1-80 cells [1] (Homo sapiens, 72 h, S1-M1-80 cells, 3 days, MTS, read-out: IC50 (μM) s1-m1-80). The compound also gave a colony formation in the data set with S1-M1-80 cells [2] of 1263 colonies/well.

For the compound CLDQIG [Peptide N109, CLDQIG], the IC50 in the data set on S1 and with S1-M1-80 cells [1] was > 100 µM in each case.

CLDQIGE [Peptide N108, CLDQIGE]: the IC50 in the data set with S1 and in the data set on S1-M1-80 cells [1] was > 100 µM in each case.

CLDQIGEF [Peptide N107, CLDQIGEF]: the IC50 in the data set on S1 and with S1-M1-80 cells [1] was > 100 µM each time.

With CLDQIGEFQ [Peptide N106, CLDQIGEFQ], the IC50 in the data set on S1 and with S1-M1-80 cells [1] was > 100 µM throughout.
